Assay results published in patent publication US20260232684A1, “FLT3 INHIBITORS AND METHODS OF USING THE SAME” (BIOVENTURES, LLC, priority 2023, published 2026).
“Also recorded” adds a separate entry of the source.

Assays:
[1] = test system: panel of 468 kinases and kinase mutants; assay: KINOMEscan screening; type: binding; conditions: for number of kinases bound relative to gilteritinib: 20× the Molm14 IC50 concentration of each compound
[2] = test system: FLT3 phosphorylation in Ba/F3 cells stably expressing FLT3-ITD in human plasma; assay: Plasma inhibitory assay; type: cell-based; conditions: for inhibition of FLT3 in the presence of human plasma, in words: 120 minutes, same concentrations as comparators
Experimental: A pitfall of some prior FLT3 inhibitors has been poor pharmacokinetic profiles. The plasma inhibitory assay identifies one pharmacokinetic profile by evaluating the activity of drugs in the presence of human plasma proteins that can sequester inhibitors in clinical experience.
Plasma Inhibitory Assay was performed as previously described with modifications (40). Ba/F3 cells (7×10^6 cells) stably expressing FLT3-ITD were resuspended in 1 mL of RPMI 1640+10% FBS or human plasma from a healthy control. All samples were collected under the University of California, San Francisco institutional review board (IRB)-approved cell banking protocol (CC #112514). Informed consent was obtained in accordance with the Declaration of Helsinki. The appropriate amount of drug was added and incubated at 37° C. for 120 minutes. Following, cells were washed in PBS and lysed in HEPES lysis buffer supplemented with protease and phosphatase inhibitors and processed as previously described (40,41). Immunoblotting was performed using anti-phospho-FLT3 and anti-FLT3 antibody (Cell Signaling).

[3] = test system: Molm14 cells (FLT3-ITD-expressing); assay: Cell viability assay (CellTiter GLO), Molm14; type: cell-based, human; conditions: Molm14, 48 hours
Experimental: (§1) FIG. 1. […] Cells were treated with inhibitor at increasing log doses (0.1 nM-10 μM) for 48 hours. Cell viability was analyzed through CellTiter GLO. […] Cells were exposed to increasing amounts of each drug for 2 hours. GAPDH1 represents loading control for phospho-ERK and ERK blots. GAPDH2 represents loading control for phosphor-STAT5, STAT5, phospho-S6 and S6. Each experiment was completed in triplicate. Representative images are shown.
(§2) FIG. 5. […] Cells were dosed with inhibitor at increasing log doses (0.1 nM-10 μM) for 48 hours. Cell viability was analyzed through CellTiter GLO.
(§3) MV-4-11 and parental Molm-14 cells were a gift from Dr. Scott Kogan (University of California, San Francisco). HL60 and K562 cell lines were obtained from Charles Sawyers. […] Stable Ba/F3 lines were generated by retroviral infection as previously described (5). All cell lines were tested to be mycoplasma free and human cell lines were authenticated through STR profiling completed at the University of California, Berkeley.
(§4) Each triplicate was either dosed with drug or DMSO vehicle control. Drug dosing was completed at log doses ranging from 0.1 nM-10 μM. Cell viability was assessed after 48 hours using CellTiter GLO (Promega). Viability values were normalized to the vehicle control average. Numerical IC50 values were calculated in GraphPad Prism 7.

FLT3 = FLT3 (Homo sapiens, UniProt P36888); assay: Enzyme kinetic analysis (5-FAM microfluidic assay), FLT3; type: biochemical; conditions: variable ATP and inhibitor concentrations
Experimental: FIG. 14. Enzyme kinetic analysis of compound 1 and 2 against FLT3 and FLT3 D835Y. The 5-FAM labeled microfluidic assay was utilized and all the activities were measured using Caliper EZ Reader II with a 12-sipper chip. In the presence of variable concentrations of compound 1 or 2, phosphorylation activities of FLT3 and FLT3 D835Y were measured at different level of ATP within certain time durations.
To further assess putative binding modes of compounds 1 and 2, enzyme kinetic analyses were performed.

[4] = test system: HL60 cells (non-FLT3 driven); assay: Cell viability assay (CellTiter GLO), HL60; type: cell-based, human; conditions: HL60, 48 hours
Experimental: as §1, §3, §4

Molm14 F691L cells = assay: Cell viability assay (CellTiter GLO), Molm14 F691L; type: cell-based, human; conditions: 48 hours
Experimental: as §1, §2, §3, §4

[5] = test system: Ba/F3 cells transduced with mutagenized FLT3-ITD; assay: Saturation mutagenesis resistance selection (XL1-Red mutagenized FLT3-ITD); type: cell-based; conditions: Ba/F3 cells with FLT3-ITD mutant isoforms (FIG. 10)
Source text: FIG. 10. (A) Schematic depicting the saturation mutagenesis experimental design and the range of concentrations for compound 1 and compound 2 to select for resistant cells; (B) Population doublings of XL1-Red-mutagenized FLT3-ITD plasmid-transduced Ba/F3 cells in escalating concentrations of compound 1 and compound 2. Arrows indicate the timepoint of passage when a concentration of 0.1 million cells/mL was achieved; (C) Western blot analysis of lysates collected from transduced Ba/F3 cells cultured in (lane 1) vehicle; (lane 2) 120 nM of compound 1; (lane 3) 120n M of compound 2 (lane 4) Ba/F3 cells transduced with MSCVpuro; (lane M) size marker. […] Left table: identity of mutations detected at escalating concentrations of compounds 1 and 2. Right table: IC50 values of compounds 1 and 2 in Ba/F3 cells transformed to growth factor independence with FLT3-ITD and various mutant isoforms.
To determine if these compounds are potentially vulnerable to novel secondary mutations in FLT3-ITD, Ba/F3 cells were transduced with retrovirus generated using MSCVpuro/FLT3-ITD plasmid purified from the XL1-Red bacterial strain, which is deficient in DNA mismatch repair and introduces random point mutations. This assay has successfully identified point mutations for other FLT3 TKIs that were subsequently validated in samples obtained from patients with acquired resistance. […]

[6] = test system: FLT3 phosphorylation in parental Molm14 cells; assay: Immunoblotting of phospho-FLT3 and downstream signaling, Molm14; type: cell-based, human; conditions: parental Molm14, 2 hours, Western blot
Experimental: FIG. 1. Activity of compounds 1 and 2 against parental Molm14 cells harboring secondary kinase domain mutations associated with clinical resistance to active FLT3 TKIs. […] Each point represents the calculated IC50 from an independent experiment completed in triplicate. Cells were treated with inhibitor at increasing log doses (0.1 nM-10 μM) for 48 hours. Cell viability was analyzed through CellTiter GLO. […] Cells were exposed to increasing amounts of each drug for 2 hours. GAPDH1 represents loading control for phospho-ERK and ERK blots. GAPDH2 represents loading control for phosphor-STAT5, STAT5, phospho-S6 and S6. Each experiment was completed in triplicate. Representative images are shown.
Exponentially growing Molm-14 or Ba/F3 cells were plated with RPMI 1640+10% (vol/vol) FBS with the indicated amount of drug. Following 120 minute incubation at 37° C., cells were washed in PBS and lysed in HEPES lysis buffer supplemented with protease and phosphatase inhibitors and processed as previously described (39). Immunoblotting was performed using anti-phospho-tyrosine 4G10 antibody (Millipore Sigma) and anti-FLT3 antibody (Cell Signaling Technology) following immunoprecipitation with anti-FLT3 antibody from 500 μg of total protein. […]

Chain of FLT3 (P36888 27-993): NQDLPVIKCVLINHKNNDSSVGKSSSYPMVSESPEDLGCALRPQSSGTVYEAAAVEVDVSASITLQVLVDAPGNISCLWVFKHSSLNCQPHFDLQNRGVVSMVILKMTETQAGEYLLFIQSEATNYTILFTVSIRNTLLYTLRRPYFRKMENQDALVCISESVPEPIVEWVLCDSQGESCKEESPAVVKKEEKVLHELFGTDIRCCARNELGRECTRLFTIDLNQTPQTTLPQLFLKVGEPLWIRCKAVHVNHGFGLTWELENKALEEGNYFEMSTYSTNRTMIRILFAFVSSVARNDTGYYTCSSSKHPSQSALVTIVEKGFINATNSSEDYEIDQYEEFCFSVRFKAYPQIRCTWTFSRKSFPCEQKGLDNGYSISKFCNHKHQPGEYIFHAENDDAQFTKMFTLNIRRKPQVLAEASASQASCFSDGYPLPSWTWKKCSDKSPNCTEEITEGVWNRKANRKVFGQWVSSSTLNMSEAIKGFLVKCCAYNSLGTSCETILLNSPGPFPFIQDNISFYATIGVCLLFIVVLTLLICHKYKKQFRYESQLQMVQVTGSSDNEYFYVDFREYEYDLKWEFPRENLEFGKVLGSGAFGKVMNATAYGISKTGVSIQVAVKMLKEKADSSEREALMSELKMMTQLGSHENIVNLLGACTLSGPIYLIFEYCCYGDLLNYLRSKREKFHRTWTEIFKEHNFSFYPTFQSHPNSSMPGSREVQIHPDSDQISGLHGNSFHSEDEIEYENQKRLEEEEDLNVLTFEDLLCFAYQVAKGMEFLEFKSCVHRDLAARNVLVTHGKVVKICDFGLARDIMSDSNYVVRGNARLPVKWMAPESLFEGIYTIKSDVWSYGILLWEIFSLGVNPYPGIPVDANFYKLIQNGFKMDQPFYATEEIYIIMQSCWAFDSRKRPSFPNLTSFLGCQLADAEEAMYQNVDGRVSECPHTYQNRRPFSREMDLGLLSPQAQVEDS

SMILES | selectivity profile, in words ([1]; 20× the Molm14 IC50 concentration) | number of kinases bound relative to gilteritinib [1] | six kinases bound with greatest affinity ([1]; KINOMEscan analysis) | impact of the presence of plasma on activity ([2]; human plasma vs RPMI 1640+10% FBS) | inhibition of FLT3 in the presence of human plasma, in words [2] | activity in cell viability assay (IC50, FIG. 1A/5B), in words [3] | binding mode / inhibitor type from enzyme kinetics (FLT3) | activity in cell viability assay (IC50, FIG. 1A), in words [4] | activity in cell viability assay (IC50, FIG. 1A/5B), in words (Molm14 F691L cells) | resistance conferred by secondary FLT3 mutations that confer relative resistance to other FLT3 TKIs [5] | inhibition of FLT3 phosphorylation and downstream signaling, in words [6]
CN(C)CCNc1ncc(F)c(-c2cnc3cc(-c4cnn(C)c4)ccn23)n1 [Compound 1] | remarkable selectivity profile | bound to far fewer kinases than gilteritinib | FLT3, IRAK4, PHGK1, PHGK2, CDK7, TRKA | almost no impact | more potent inhibition of FLT3 in the presence of plasma compared to quizartinib and gilteritinib | activity comparable to quizartinib and superior to gilteritinib | type 1 inhibitor; also recorded: type 1 binding mode | neither compound displayed any concerning toxicity | retain activity | none of these were capable of conferring significant resistance | low nanomolar concentrations were sufficient to inhibit phosphorylation of FLT3
CC(C)(C)c1cc(NC(=O)Cc2ccc(-c3cnc4cc(-c5cnn(CCN6CCOCC6)c5)ccc4n3)cc2)no1 [Compound 2, N-(5-(tert-butyl)isoxazol-3-yl)-2-(4-(6-(1-(2-morpholinoethyl)-1H-pyrazol-4-yl)quinoxalin-2-yl)phenyl) acetamide] | – | bound to far fewer kinases than gilteritinib | – | – | more potent inhibition of FLT3 in the presence of plasma compared to quizartinib and gilteritinib | activity comparable to quizartinib and superior to gilteritinib | type 2 inhibitor; also recorded: type 2 binding mode | neither compound displayed any concerning toxicity | retain activity | none of these were capable of conferring significant resistance | low nanomolar concentrations were sufficient to inhibit phosphorylation of FLT3
